We go through nine compounds from patent publication US11986471B2, “Compounds and methods of use” (Tango Therapeutics, Inc., priority 2018, dated 2024).

SMILES strings stand for the structures. Bounds are passed on as bounds.

One test deals with HAP1 MTAP-intact. The experiment in a line: SDMA in-cell western assay, HAP1 MTAP-intact cell line. The class given is cell-based. Particulars: Homo sapiens. The method in brief: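 Cells from two matched HAP1 lines, MTAP-null and MTAP-expressing at endogenous levels, are treated with compound. SDMA is then quantified by in-cell western and an IC50 is calculated for each line.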

For test [1], the target named is T1, PRMT5 (Homo sapiens, UniProt O14744).
T1 construct: purchased Viva (custom protein)
Nature of the test: PRMT5 IC50 assay with no cofactor. Particulars: read-out: No Co-factor IC50. Type of test: biochemical. In a few lines: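 IC50 values were measured against human PRMT5 with SAM, with MTA, or with no cofactor. Ki was derived from IC50 as Ki=IC50/1.5 with SAM and Ki=IC50/13.5 with MTA, and the Ki(SAM)/Ki(MTA) ratio was then taken.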

The target of test [2] is T1, PRMT5. Nature of the test: PRMT5 IC50 assay in the presence of SAM as cofactor. Type of test: biochemical. In a few lines:
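Each compound is tested on PRMT5 in the presence of SAM, of MTA, and without any cofactor. Ki values are then back-calculated using fixed factors of 1.5 (SAM) and 13.5 (MTA), and the two Ki values are compared as a ratio.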

Test [3] has as its target T1, PRMT5. The experiment in a line: PRMT5 IC50 assay in the presence of MTA as cofactor. Type of test: biochemical. Particulars: for IC50: PRMT5, MTA as cofactor; for SAM/MTA Ratio: ratio between Ki in the presence of SAM and Ki in the presence of MTA. In a few lines: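 IC50 against PRMT5 determined with SAM as cofactor, with no cofactor, and with MTA as cofactor. Ki derived as IC50/1.5 for the SAM assay and IC50/13.5 for the MTA assay; SAM Ki to MTA Ki ratio also reported.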

Another test concerns HAP1 MTAP-deleted. Nature of the test: SDMA in-cell western assay, HAP1 MTAP-deleted cell line. The class given is cell-based. Particulars: for IC50: Homo sapiens, HAP1 MTAP-deleted cell line; for MTAP Intact/Deleted Ratio: IC50 ratio HAP1 MTAP-intact / HAP1 MTAP-deleted. In a few lines: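 MTAP-null HAP1 cells, the deleted member of an isogenic pair with endogenously MTAP-expressing HAP1, are treated with compound. SDMA is then quantified by in-cell western and an IC50 is calculated.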

T1 sequence (O14744 whole entry): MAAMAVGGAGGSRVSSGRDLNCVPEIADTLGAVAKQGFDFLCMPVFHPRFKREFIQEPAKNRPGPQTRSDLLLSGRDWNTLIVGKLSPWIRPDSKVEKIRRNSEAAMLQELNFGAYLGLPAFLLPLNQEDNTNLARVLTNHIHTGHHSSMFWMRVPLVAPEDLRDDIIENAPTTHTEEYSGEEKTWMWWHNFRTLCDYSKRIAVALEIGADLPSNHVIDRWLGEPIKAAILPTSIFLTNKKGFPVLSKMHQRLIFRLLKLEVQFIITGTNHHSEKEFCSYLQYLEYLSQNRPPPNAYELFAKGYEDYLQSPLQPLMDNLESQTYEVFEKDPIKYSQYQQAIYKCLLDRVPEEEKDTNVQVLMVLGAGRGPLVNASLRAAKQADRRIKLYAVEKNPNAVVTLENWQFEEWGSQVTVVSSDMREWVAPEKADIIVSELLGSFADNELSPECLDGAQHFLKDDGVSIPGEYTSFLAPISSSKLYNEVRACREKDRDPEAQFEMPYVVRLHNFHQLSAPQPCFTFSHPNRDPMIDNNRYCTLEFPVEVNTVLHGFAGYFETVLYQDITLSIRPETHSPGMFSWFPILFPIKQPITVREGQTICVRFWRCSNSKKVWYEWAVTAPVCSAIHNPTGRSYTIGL
T1 sequence (Q9BQA1 whole entry partner): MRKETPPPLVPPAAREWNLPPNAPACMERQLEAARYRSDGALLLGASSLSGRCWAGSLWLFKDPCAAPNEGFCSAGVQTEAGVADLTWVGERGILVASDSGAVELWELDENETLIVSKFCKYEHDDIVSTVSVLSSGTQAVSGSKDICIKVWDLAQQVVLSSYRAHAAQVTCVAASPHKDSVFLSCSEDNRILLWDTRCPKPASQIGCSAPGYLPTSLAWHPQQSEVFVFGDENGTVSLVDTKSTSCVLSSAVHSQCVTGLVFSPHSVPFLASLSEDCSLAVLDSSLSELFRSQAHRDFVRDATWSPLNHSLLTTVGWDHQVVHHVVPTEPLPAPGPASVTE

`Cn1nccc1COc1ccc2c(c1Cl)CCN(C[C@@H](O)CNC(=O)c1ccnc(NC3CCCC3)c1)C2` [Compound 275, (S)—N-(3-(5-chloro-6-((1-methyl-1H-pyrazol-5-yl)methoxy)-3,4-dihydroisoquinolin-2(1H)-yl)-2-hydroxypropyl)-2-(cyclopentylamino)isonicotinamide]: the half-maximal inhibitory concentration (IC50) is at least 10 µM in the test on HAP1 MTAP-intact; at least 5 µM on PRMT5 [1]; 0.5 to 5 µM on PRMT5 [2]; 0.5 to 5 µM on PRMT5 [3]; at least 10 µM in the test with HAP1 MTAP-deleted. At PRMT5 [3], the “SAM/MTA Ratio” value is “A (a Ki ratio greater than or equal to 10 fold between the Ki in the presence of SAM and the Ki in the presence of MTA)”. In addition, the “MTAP Intact/Deleted Ratio” value in the test with HAP1 MTAP-deleted was “C* (an IC50 ratio of less than 3 fold between the IC50 in the HAP1 MTAP-intact cell line and the HAP1 MTAP-deleted cell line)”.

Turning to `Cc1c(OCc2ccnn2C)ccc2c1CCN(C[C@@H](O)CNC(=O)c1ccnc(NC3CCCC3)c1)C2` [Compound 277, (S)-2-(cyclopentylamino)-N-(2-hydroxy-3-(5-methyl-6-((1-methyl-1H-pyrazol-5-yl)methoxy)-3N-dihydroisoquinolin-2(1H)-yl)propyl)isonicotinamide], the IC50 in the test on HAP1 MTAP-intact is at least 10 µM; at PRMT5 [1], at least 5 µM; at PRMT5 [2], 0.5 to 5 µM; at PRMT5 [3], 0.5 to 5 µM; with HAP1 MTAP-deleted, at least 10 µM. Further, the “SAM/MTA Ratio” value on PRMT5 [3] was “A (a Ki ratio greater than or equal to 10 fold between the Ki in the presence of SAM and the Ki in the presence of MTA)”. Besides, the “MTAP Intact/Deleted Ratio” value in the test with HAP1 MTAP-deleted was “C* (an IC50 ratio of less than 3 fold between the IC50 in the HAP1 MTAP-intact cell line and the HAP1 MTAP-deleted cell line)”.

As to `Cc1c(OCc2ccnn2C)ccc2c1CCN(C[C@@H](O)CNC(=O)c1ccnc(NC3CCCCC3)c1)C2` [Compound 278, (S)-2-(cyclohexylamino)-N-(2-hydroxy-3-(5-methyl-6-((1-methyl-1H-pyrazol-5-yl)methoxy)-3N-dihydroisoquinolin-2(1H)-yl)propyl)isonicotinamide], the half-inhibitory concentration (IC50) was at least 10 µM in the test on HAP1 MTAP-intact; at least 5 µM on PRMT5 [1]; 0.5 to 5 µM at PRMT5 [2]; 0.5 to 5 µM on PRMT5 [3]; at least 10 µM with HAP1 MTAP-deleted. Also, the “SAM/MTA Ratio” value on PRMT5 [3] is “A (a Ki ratio greater than or equal to 10 fold between the Ki in the presence of SAM and the Ki in the presence of MTA)”. In the test with HAP1 MTAP-deleted, the “MTAP Intact/Deleted Ratio” value was “C* (an IC50 ratio of less than 3 fold between the IC50 in the HAP1 MTAP-intact cell line and the HAP1 MTAP-deleted cell line)”.

With `O=C(NC[C@H](O)CN1CCc2c(Cl)c(OCc3cnco3)cc(F)c2C1)c1ccnc(NC2CCC2)c1` [Compound 279, N-[(2S)-3-[5-chloro-8-fluoro-6-(oxazol-5-ylmethoxy)-3,4-dihydro-1H-isoquinolin-2-yl]-2-hydroxy-propyl]-2-(cyclobutylamino)pyridine-4-carboxamide], the IC50 in the test with HAP1 MTAP-intact was at least 10 µM; at PRMT5 [1], at least 5 µM; on PRMT5 [2], 0.05 to 0.5 µM; at PRMT5 [3], 0.05 to 0.5 µM; in the test on HAP1 MTAP-deleted it was 1 to 10 µM. The “SAM/MTA Ratio” value at PRMT5 [3] is “A (a Ki ratio greater than or equal to 10 fold between the Ki in the presence of SAM and the Ki in the presence of MTA)”. For the same compound, the “MTAP Intact/Deleted Ratio” value in the test with HAP1 MTAP-deleted was “C* (an IC50 ratio of less than 3 fold between the IC50 in the HAP1 MTAP-intact cell line and the HAP1 MTAP-deleted cell line)”.

On to `O=C(NC[C@H](O)CN1CCc2c(ccc(OCc3cn[nH]c3)c2Cl)C1)c1ccnc(NC2CCC2)c1` [Compound 280, N-[(2S)-3-[5-chloro-6-(1H-pyrazol-4-ylmethoxy)-3,4-dihydro-1H-isoquinolin-2-yl]-2-hydroxy-propyl]-2-(cyclobutylamino)pyridine-4-carboxamide], for which the IC50 with HAP1 MTAP-intact was below 1 µM; on PRMT5 [1] it was at least 5 µM; on PRMT5 [2], 0.05 to 0.5 µM; on PRMT5 [3], 0.5 to 5 µM; in the test on HAP1 MTAP-deleted, below 1 µM. For the same compound, the “MTAP Intact/Deleted Ratio” value in the test on HAP1 MTAP-deleted is “C* (an IC50 ratio of less than 3 fold between the IC50 in the HAP1 MTAP-intact cell line and the HAP1 MTAP-deleted cell line)”.

Regarding `O=C(NC[C@H](O)CN1CCc2cc(OCc3cnco3)c(Cl)cc2C1)c1ccnc(NC2CCC2)c1` [Compound 281, N-[(2S)-3-[7-chloro-6-(oxazol-5-ylmethoxy)-3,4-dihydro-1H-isoquinolin-2-yl]-2-hydroxy-propyl]-2-(cyclobutylamino)pyridine-4-carboxamide], the IC50 with HAP1 MTAP-intact was at least 10 µM; at PRMT5 [1] it was at least 5 µM; on PRMT5 [2], 0.5 to 5 µM; at PRMT5 [3], 0.05 to 0.5 µM; with HAP1 MTAP-deleted, 1 to 10 µM. Also, the “SAM/MTA Ratio” value on PRMT5 [3] is “A (a Ki ratio greater than or equal to 10 fold between the Ki in the presence of SAM and the Ki in the presence of MTA)”. Further, the “MTAP Intact/Deleted Ratio” value in the test on HAP1 MTAP-deleted was “C* (an IC50 ratio of less than 3 fold between the IC50 in the HAP1 MTAP-intact cell line and the HAP1 MTAP-deleted cell line)”.

Consider `Cn1nccc1COc1cc(F)c2c(c1Cl)CCN(C[C@@H](O)CNC(=O)c1ccnc(NC3CCC3)c1)C2` [Compound 282, N-[(2S)-3-[5-chloro-8-fluoro-6-[(2-methylpyrazol-3-yl)methoxy]-3,4-dihydro-1H-isoquinolin-2-yl]-2-hydroxy-propyl]-2-(cyclobutylamino)pyridine-4-carboxamide], for which the IC50 in the test on HAP1 MTAP-intact is at least 10 µM; on PRMT5 [1] it was at least 5 µM; at PRMT5 [2], 0.5 to 5 µM; on PRMT5 [3] it was 0.5 to 5 µM; with HAP1 MTAP-deleted, at least 10 µM. Besides, the “SAM/MTA Ratio” value at PRMT5 [3] was “A (a Ki ratio greater than or equal to 10 fold between the Ki in the presence of SAM and the Ki in the presence of MTA)”. Moreover, the “MTAP Intact/Deleted Ratio” value in the test with HAP1 MTAP-deleted is “C* (an IC50 ratio of less than 3 fold between the IC50 in the HAP1 MTAP-intact cell line and the HAP1 MTAP-deleted cell line)”.

On to `Cc1ncoc1COc1ccc2c(c1)CCN(C[C@@H](O)CNC(=O)c1cccc(NC3CCC3)c1)C2` [Compound 283, (S)-3-(cyclobutylamino)-N-(2-hydroxy-3-(6-((4-methyloxazol-5-yl)methoxy)-3,4-dihydroisoquinolin-2(1H)-yl)propyl)benzamide], for which the IC50 in the test on HAP1 MTAP-intact was below 1 µM; at PRMT5 [1], at least 5 µM; on PRMT5 [2], 0.5 to 5 µM; on PRMT5 [3], 0.5 to 5 µM; in the test on HAP1 MTAP-deleted, below 1 µM. Also, the “SAM/MTA Ratio” value at PRMT5 [3] is “A (a Ki ratio greater than or equal to 10 fold between the Ki in the presence of SAM and the Ki in the presence of MTA)”. In addition, the “MTAP Intact/Deleted Ratio” value in the test with HAP1 MTAP-deleted was “C* (an IC50 ratio of less than 3 fold between the IC50 in the HAP1 MTAP-intact cell line and the HAP1 MTAP-deleted cell line)”.

With `O=C(NC[C@H](O)CN1CCc2cc(OCc3cnco3)ccc2C1)c1cc(NC2CCC2)ncc1Cl` [Compound 284, 5-chloro-2-(cyclobutylamino)-N-[(2S)-2-hydroxy-3-[6-(oxazol-5-ylmethoxy)-3N-dihydro-1H-isoquinolin-2-yl]propyl]pyridine-4-carboxamide], the IC50 is below 1 µM with HAP1 MTAP-intact; at least 5 µM on PRMT5 [1]; 0.5 to 5 µM at PRMT5 [2]; 0.05 to 0.5 µM at PRMT5 [3]; below 1 µM in the test with HAP1 MTAP-deleted. In addition, at PRMT5 [3], the “SAM/MTA Ratio” value is “A (a Ki ratio greater than or equal to 10 fold between the Ki in the presence of SAM and the Ki in the presence of MTA)”. In the test on HAP1 MTAP-deleted, the “MTAP Intact/Deleted Ratio” value is “C* (an IC50 ratio of less than 3 fold between the IC50 in the HAP1 MTAP-intact cell line and the HAP1 MTAP-deleted cell line)”.
